# Results reported in PMC4076210, “Discovery of Novel AKT Inhibitors with Enhanced Anti-Tumor Effects in Combination with the MEK Inhibitor” (PLoS ONE, 2014).
# Read-outs that look alike come from different tables or passages of the source.
# Tests used:
# Assay in all cases: Kinase panel
# Assay type in all cases: biochemical
# SAPK2a(T106M)(h) = biological target: T1, SAPK2a(T106M)(h) (Homo sapiens, UniProt Q16539, T106M)
# T1 construct: purchased Millipore KinaseProfiler
# eEF-2K(h) = biological target: T2, eEF-2K(h) (Homo sapiens, UniProt O00418)
# T2 construct: purchased Millipore KinaseProfiler
# Abl (H396P) (h) = biological target: T3, Abl (H396P) (h) (Homo sapiens, UniProt P00519, H396P)
# T3 construct: purchased Millipore KinaseProfiler
# EphA7(h) = biological target: T4, EphA7(h) (Homo sapiens, UniProt Q15375)
# T4 construct: purchased Millipore KinaseProfiler
# NEK11(h) = biological target: T5, NEK11(h) (Homo sapiens, UniProt Q8NG66)
# T5 construct: purchased Millipore KinaseProfiler
# T5 sequence (Q8NG66 1-645): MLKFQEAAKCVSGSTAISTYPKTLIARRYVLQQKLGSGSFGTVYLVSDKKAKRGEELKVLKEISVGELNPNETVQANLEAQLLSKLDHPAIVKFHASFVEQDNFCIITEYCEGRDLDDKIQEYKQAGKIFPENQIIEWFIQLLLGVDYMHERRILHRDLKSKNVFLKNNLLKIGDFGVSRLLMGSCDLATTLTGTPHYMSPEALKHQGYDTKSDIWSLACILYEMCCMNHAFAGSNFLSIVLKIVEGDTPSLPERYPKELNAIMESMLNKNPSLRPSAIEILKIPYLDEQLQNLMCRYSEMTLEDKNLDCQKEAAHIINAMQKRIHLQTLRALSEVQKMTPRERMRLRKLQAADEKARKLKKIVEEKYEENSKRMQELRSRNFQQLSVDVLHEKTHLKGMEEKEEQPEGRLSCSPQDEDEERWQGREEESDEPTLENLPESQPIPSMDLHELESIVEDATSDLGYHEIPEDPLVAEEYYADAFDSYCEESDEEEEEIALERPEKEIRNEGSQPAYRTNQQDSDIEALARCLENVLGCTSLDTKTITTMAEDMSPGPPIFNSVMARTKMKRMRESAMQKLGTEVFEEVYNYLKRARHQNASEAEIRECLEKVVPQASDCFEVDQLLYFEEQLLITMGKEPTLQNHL
# cSRC(h) = biological target: T6, cSRC(h) (Homo sapiens, UniProt P12931)
# T6 construct: purchased Millipore KinaseProfiler
# ALK(h) = biological target: T7, ALK(h) (Homo sapiens, UniProt Q9UM73)
# T7 construct: purchased Millipore KinaseProfiler
# PDK1(h) = biological target: T8, PDK1(h) (Homo sapiens, UniProt O15530)
# T8 construct: purchased Millipore KinaseProfiler
# T8 sequence (O15530 1-556): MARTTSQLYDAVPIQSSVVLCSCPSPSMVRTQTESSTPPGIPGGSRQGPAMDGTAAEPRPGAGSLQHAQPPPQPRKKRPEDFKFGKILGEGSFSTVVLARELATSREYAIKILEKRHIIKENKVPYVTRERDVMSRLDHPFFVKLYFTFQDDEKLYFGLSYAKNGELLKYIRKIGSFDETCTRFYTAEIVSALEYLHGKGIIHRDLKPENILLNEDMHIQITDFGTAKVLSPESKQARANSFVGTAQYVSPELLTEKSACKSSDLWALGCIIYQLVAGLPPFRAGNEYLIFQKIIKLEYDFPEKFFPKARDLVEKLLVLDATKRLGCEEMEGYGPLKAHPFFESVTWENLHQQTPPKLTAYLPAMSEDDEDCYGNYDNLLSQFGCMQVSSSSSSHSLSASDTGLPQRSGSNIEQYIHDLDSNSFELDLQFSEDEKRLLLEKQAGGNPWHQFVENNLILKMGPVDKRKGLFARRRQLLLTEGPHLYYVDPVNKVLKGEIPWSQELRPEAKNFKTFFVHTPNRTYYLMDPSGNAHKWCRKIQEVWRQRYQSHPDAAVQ
# MEK1(h) = biological target: T9, MEK1(h) (Homo sapiens, UniProt Q02750)
# T9 construct: purchased Millipore KinaseProfiler
# NEK2(h) = biological target: T10, NEK2(h) (Homo sapiens, UniProt P51955)
# T10 construct: purchased Millipore KinaseProfiler
# T10 sequence (P51955 1-445): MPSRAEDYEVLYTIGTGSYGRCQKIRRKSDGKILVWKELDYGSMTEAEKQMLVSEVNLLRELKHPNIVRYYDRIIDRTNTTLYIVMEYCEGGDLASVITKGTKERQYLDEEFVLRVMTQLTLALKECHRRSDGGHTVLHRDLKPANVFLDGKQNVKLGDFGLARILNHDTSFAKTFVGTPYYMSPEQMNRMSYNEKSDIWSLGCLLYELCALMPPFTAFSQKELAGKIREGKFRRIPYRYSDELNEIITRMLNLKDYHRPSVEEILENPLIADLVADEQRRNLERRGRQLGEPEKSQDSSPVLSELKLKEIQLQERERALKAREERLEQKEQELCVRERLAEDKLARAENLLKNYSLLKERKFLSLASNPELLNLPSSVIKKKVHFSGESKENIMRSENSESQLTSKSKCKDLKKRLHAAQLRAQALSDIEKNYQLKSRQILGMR
# Ret(V804M)(h) = biological target: T11, Ret(V804M)(h) (Homo sapiens, UniProt P07949, V804M)
# T11 construct: purchased Millipore KinaseProfiler
# WNK2(h) = biological target: T12, WNK2(h) (Homo sapiens, UniProt Q9Y3S1)
# T12 construct: purchased Millipore KinaseProfiler
# JNK1α1(h) = biological target: T13, JNK1α1(h) (Homo sapiens, UniProt P45983)
# T13 construct: purchased Millipore KinaseProfiler
# T13 sequence (P45983 1-384 isoform P45983-2): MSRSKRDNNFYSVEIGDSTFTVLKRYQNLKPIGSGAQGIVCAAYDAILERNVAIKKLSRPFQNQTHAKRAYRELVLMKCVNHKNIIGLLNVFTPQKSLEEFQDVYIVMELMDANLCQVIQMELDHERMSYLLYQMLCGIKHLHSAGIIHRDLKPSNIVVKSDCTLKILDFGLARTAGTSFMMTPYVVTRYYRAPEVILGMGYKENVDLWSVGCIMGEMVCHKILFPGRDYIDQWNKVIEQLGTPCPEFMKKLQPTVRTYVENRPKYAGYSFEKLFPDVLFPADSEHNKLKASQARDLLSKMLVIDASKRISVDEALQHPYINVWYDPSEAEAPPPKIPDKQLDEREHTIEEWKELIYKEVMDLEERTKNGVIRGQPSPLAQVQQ
# T4 sequence (Q15375 28-998): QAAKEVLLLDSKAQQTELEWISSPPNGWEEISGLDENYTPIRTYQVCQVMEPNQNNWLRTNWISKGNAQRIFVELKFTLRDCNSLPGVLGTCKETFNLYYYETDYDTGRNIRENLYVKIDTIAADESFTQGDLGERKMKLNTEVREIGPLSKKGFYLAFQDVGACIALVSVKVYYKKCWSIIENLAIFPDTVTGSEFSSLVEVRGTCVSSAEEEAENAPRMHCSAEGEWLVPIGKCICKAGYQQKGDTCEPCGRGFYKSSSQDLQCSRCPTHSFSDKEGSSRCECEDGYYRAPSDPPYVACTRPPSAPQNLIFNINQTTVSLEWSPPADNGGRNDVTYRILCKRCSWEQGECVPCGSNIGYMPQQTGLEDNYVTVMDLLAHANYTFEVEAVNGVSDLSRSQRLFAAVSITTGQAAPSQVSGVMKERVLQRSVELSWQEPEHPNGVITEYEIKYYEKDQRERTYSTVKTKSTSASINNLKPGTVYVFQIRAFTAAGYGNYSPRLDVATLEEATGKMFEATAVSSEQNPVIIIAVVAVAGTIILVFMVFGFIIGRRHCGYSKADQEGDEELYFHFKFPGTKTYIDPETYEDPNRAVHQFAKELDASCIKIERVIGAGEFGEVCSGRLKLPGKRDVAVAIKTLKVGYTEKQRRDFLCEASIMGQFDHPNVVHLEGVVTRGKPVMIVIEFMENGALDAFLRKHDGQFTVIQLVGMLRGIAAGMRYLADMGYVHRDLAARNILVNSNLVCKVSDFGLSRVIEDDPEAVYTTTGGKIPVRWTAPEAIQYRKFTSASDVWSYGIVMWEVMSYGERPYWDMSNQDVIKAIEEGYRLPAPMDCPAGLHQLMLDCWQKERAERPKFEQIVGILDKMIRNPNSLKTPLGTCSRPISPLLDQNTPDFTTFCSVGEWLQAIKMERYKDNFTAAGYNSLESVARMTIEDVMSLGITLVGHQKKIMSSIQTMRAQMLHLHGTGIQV
# T1 sequence (Q16539 whole entry T106M): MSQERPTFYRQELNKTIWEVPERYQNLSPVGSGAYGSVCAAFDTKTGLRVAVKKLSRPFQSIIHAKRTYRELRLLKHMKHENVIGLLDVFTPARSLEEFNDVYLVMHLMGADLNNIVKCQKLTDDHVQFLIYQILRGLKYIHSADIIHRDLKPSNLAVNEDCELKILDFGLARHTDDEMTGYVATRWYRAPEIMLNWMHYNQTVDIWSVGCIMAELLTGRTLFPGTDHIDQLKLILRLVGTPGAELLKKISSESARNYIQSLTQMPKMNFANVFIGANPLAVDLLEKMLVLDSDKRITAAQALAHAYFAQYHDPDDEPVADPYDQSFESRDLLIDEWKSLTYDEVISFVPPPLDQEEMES
# T6 sequence (P12931 whole entry): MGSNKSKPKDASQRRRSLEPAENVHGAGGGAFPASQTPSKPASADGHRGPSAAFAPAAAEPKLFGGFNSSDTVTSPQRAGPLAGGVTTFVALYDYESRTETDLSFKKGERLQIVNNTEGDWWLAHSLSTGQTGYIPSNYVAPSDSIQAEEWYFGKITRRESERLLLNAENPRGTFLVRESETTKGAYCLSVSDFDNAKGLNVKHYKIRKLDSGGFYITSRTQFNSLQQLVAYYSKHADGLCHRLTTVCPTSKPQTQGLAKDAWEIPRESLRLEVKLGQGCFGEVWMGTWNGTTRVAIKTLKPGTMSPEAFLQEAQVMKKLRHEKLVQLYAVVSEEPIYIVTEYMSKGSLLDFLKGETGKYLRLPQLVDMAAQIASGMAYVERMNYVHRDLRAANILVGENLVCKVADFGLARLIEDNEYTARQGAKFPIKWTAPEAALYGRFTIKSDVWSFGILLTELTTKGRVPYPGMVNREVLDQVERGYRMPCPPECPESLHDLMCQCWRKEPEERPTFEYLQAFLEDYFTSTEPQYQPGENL
# T9 sequence (Q02750 whole entry): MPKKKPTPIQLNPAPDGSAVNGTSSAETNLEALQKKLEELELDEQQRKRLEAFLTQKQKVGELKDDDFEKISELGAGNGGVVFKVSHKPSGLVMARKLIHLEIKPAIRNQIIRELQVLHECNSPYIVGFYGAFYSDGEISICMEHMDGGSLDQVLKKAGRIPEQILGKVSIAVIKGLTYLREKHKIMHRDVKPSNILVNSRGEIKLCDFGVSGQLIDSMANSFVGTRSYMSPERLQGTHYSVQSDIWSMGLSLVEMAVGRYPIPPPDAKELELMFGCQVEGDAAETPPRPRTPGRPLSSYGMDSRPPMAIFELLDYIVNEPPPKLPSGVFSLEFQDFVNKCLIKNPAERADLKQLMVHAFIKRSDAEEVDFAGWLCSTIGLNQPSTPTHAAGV
# T7 sequence (Q9UM73 19-1620): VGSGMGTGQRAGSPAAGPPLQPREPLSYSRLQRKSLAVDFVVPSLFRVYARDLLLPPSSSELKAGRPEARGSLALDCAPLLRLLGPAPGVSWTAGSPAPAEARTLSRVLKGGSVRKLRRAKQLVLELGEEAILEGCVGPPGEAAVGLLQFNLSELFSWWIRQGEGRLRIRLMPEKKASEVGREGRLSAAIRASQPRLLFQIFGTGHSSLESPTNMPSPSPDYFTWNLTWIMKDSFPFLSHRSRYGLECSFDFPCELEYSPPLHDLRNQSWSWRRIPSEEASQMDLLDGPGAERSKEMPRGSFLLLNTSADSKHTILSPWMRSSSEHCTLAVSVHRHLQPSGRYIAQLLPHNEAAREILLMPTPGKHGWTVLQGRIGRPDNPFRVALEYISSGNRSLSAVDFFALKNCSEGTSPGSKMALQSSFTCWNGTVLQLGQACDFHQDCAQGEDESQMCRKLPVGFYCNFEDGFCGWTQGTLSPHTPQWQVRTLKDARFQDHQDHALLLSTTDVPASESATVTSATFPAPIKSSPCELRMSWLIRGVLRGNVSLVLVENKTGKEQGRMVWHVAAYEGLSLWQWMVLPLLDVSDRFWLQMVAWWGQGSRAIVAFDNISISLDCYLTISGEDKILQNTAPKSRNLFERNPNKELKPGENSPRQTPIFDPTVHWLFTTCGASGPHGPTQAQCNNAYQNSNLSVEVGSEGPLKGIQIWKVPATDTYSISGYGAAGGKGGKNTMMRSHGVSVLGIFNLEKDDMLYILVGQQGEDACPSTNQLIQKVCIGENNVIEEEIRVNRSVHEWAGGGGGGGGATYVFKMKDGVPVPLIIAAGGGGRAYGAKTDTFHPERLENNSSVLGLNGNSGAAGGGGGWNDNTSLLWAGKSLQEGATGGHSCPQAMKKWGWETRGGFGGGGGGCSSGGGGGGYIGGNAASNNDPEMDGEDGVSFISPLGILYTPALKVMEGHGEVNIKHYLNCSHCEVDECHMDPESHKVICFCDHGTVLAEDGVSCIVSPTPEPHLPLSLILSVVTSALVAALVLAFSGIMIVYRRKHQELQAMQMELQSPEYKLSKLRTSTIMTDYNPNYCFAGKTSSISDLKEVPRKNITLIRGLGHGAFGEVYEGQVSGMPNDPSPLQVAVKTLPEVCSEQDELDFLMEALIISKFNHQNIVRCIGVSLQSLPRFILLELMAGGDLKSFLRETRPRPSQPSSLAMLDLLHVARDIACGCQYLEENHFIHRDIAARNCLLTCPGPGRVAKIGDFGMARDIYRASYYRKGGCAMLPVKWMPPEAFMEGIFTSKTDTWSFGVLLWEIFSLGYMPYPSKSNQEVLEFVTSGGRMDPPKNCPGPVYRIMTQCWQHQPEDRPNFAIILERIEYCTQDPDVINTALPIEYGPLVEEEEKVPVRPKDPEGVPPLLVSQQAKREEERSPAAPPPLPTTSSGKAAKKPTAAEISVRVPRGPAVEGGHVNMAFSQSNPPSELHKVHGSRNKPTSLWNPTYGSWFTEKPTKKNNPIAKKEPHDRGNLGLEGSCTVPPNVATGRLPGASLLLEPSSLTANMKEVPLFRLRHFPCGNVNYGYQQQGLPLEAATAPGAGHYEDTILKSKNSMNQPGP
smiles,measurement,setting,value
Cn1ncc(Cl)c1-c1cc(C(=O)N[C@H](CN)Cc2ccc(F)c(F)c2)oc1Cl [GSK2141795],inhibition at 0.5 µM,"SAPK2a(T106M)(h); 0.5 µM, read-out: % Inhibition",-15%
same,inhibition at 10 µM,"SAPK2a(T106M)(h); 10 µM, read-out: % Inhibition",-33%
same,inhibition at 0.5 µM,"eEF-2K(h); 0.5 µM, read-out: % Inhibition",4%
same,inhibition at 10 µM,"eEF-2K(h); 10 µM, read-out: % Inhibition",3%
same,inhibition at 0.5 µM,"Abl (H396P) (h); 0.5 µM, read-out: % Inhibition",4%
same,inhibition at 10 µM,"Abl (H396P) (h); 10 µM, read-out: % Inhibition",1%
same,inhibition at 0.5 µM,"EphA7(h); 0.5 µM, read-out: % Inhibition",-3%
same,inhibition at 10 µM,"EphA7(h); 10 µM, read-out: % Inhibition",16%
same,inhibition at 0.5 µM,"NEK11(h); 0.5 µM, read-out: % Inhibition",-11%
same,inhibition at 10 µM,"NEK11(h); 10 µM, read-out: % Inhibition",-2%
same,inhibition at 0.5 µM,"cSRC(h); 0.5 µM, read-out: % Inhibition",-6%
same,inhibition at 10 µM,"cSRC(h); 10 µM, read-out: % Inhibition",49%
same,inhibition at 0.5 µM,"ALK(h); 0.5 µM, read-out: % Inhibition",-8%
same,inhibition at 10 µM,"ALK(h); 10 µM, read-out: % Inhibition",-4%
same,inhibition at 0.5 µM,"PDK1(h); 0.5 µM, read-out: % Inhibition",3%
same,inhibition at 10 µM,"PDK1(h); 10 µM, read-out: % Inhibition",19%
same,inhibition at 0.5 µM,"MEK1(h); 0.5 µM, read-out: % Inhibition",0%
same,inhibition at 10 µM,"MEK1(h); 10 µM, read-out: % Inhibition",26%
same,inhibition at 0.5 µM,"NEK2(h); 0.5 µM, read-out: % Inhibition",-4%
same,inhibition at 10 µM,"NEK2(h); 10 µM, read-out: % Inhibition",2%
same,inhibition at 0.5 µM,"Ret(V804M)(h); 0.5 µM, read-out: % Inhibition",-2%
same,inhibition at 10 µM,"Ret(V804M)(h); 10 µM, read-out: % Inhibition",25%
same,inhibition at 0.5 µM,"WNK2(h); 0.5 µM, read-out: % Inhibition",-12%
same,inhibition at 10 µM,"WNK2(h); 10 µM, read-out: % Inhibition",3%
same,inhibition at 0.5 µM,"JNK1α1(h); 0.5 µM, read-out: % Inhibition",-9%
same,inhibition at 10 µM,"JNK1α1(h); 10 µM, read-out: % Inhibition",-5%
Cn1ncc(Cl)c1-c1cc(C(=O)N[C@H](CN)Cc2cccc(F)c2)sc1Cl [GSK2110183],inhibition at 0.5 µM,SAPK2a(T106M)(h),-5%
same,inhibition at 10 µM,SAPK2a(T106M)(h),-6%
same,inhibition at 0.5 µM,eEF-2K(h),-3%
same,inhibition at 10 µM,eEF-2K(h),13%
same,inhibition at 0.5 µM,Abl (H396P) (h),-2%
same,inhibition at 10 µM,Abl (H396P) (h),10%
same,inhibition at 0.5 µM,EphA7(h),-4%
same,inhibition at 10 µM,EphA7(h),8%
same,inhibition at 0.5 µM,NEK11(h),-13%
same,inhibition at 10 µM,NEK11(h),-11%
same,inhibition at 0.5 µM,cSRC(h),-1%
same,inhibition at 10 µM,cSRC(h),22%
same,inhibition at 0.5 µM,ALK(h),-22%
same,inhibition at 10 µM,ALK(h),0%
same,inhibition at 0.5 µM,PDK1(h),-12%
same,inhibition at 10 µM,PDK1(h),-6%
same,inhibition at 0.5 µM,MEK1(h),-1%
same,inhibition at 10 µM,MEK1(h),24%
same,inhibition at 0.5 µM,NEK2(h),-10%
same,inhibition at 10 µM,NEK2(h),-8%
same,inhibition at 0.5 µM,Ret(V804M)(h),5%
same,inhibition at 10 µM,Ret(V804M)(h),26%
same,inhibition at 0.5 µM,WNK2(h),1%
same,inhibition at 10 µM,WNK2(h),26%
same,inhibition at 0.5 µM,JNK1α1(h),-2%
same,inhibition at 10 µM,JNK1α1(h),13%
